Measurements from PMC3579855, “Characterization of DNA Topoisomerase-1 in Spodoptera exigua for Toxicity Evaluation of Camptothecin and Hydoxy-Camptothecin” (PLoS ONE, 2013).

Biological target: T1, DNA topoisomerase 1 (Topo1) (Spodoptera exigua, UniProt G1FWE7)
T1 construct: Topo70, N-terminally truncated, residues 337–930, GST fusion expressed in E. coli BL21 (DE3)
T1 sequence (G1FWE7 337-930): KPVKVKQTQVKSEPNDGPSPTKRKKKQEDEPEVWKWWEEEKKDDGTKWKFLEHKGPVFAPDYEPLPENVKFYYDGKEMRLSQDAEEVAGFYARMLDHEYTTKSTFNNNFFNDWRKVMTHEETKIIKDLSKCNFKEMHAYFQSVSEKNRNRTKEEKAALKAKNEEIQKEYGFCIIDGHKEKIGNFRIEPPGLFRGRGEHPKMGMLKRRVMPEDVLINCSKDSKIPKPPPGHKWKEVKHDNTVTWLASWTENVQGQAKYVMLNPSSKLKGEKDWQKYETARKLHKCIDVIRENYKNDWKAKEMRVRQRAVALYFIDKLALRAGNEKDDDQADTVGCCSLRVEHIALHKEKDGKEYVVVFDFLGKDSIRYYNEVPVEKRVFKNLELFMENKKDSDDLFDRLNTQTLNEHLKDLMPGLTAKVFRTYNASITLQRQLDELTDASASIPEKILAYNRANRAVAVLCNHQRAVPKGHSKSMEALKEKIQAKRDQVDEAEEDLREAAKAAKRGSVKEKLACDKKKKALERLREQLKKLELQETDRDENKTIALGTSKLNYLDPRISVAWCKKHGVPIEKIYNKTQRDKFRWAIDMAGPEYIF
Assay: pBR322 DNA relaxation assay with purified recombinant Topo1, agarose gel densitometry
Type: biochemical

For `CC[C@@]1(O)C(=O)OCc2c1cc1n(c2=O)Cc2cc3ccccc3nc2-1` [CPT, Camptothecin], which EC50 is on record?
The EC50 was 4.42 µM.

Which EC50 does the source give for `CC[C@@]1(O)C(=O)OCc2c1cc1n(c2=O)Cc2cc3cc(O)ccc3nc2-1` [HCPT, hydroxy-camptothecin] here?
Its EC50 is 15.2 µM.
